Test results taken from PubChem BioAssay AID1745844 (Carcinogenic Potency Database (CPDB), 2022).
Activity calls are given as the source filed them. The rule behind the calls is not given here.

Tested on: rodent lifetime carcinogenesis bioassay, tumor incidence TD50
Assay: chronic cancer bioassays in animals – CPDB, compiled studies (AID 1745844)

Compound: O=CCC=O
- TD50 (mouse, strain B6C3F1, females, by gavage, site: any site (literature study), lesion: several types, types named in the paper, dosed 103 weeks, study length 104 weeks): 274 mg/kg/day (inactive)
- TD50 (mouse, strain B6C3F1, females, by gavage, site: liver, lesion: hepatocellular adenoma + hepatocellular carcinoma + neoplastic nodule, dosed 103 weeks, study length 104 weeks): 568 mg/kg/day
- TD50 (mouse, strain B6C3F1, females, by gavage, site: lung, lesion: alveolar/bronchiolar adenoma + alveolar/bronchiolar carcinoma, dosed 103 weeks, study length 104 weeks): 4410 mg/kg/day
- TD50 (mouse, strain B6C3F1, males, by gavage, site: any site (literature study), lesion: several types, types named in the paper, dosed 103 weeks, study length 104 weeks): 217 mg/kg/day (inactive)
- TD50 (mouse, strain B6C3F1, males, by gavage, site: liver, lesion: hepatocellular adenoma + hepatocellular carcinoma + neoplastic nodule, dosed 103 weeks, study length 104 weeks): 230 mg/kg/day
- TD50 (mouse, strain B6C3F1, males, by gavage, site: lung, lesion: alveolar/bronchiolar adenoma + alveolar/bronchiolar carcinoma, dosed 103 weeks, study length 104 weeks): 1130 mg/kg/day
- TD50 (mouse, strain Swiss, females, in drinking water, site: liver, lesion: hemangioma, dosed 52 weeks, study length 52 weeks): 24.8 mg/kg/day
- TD50 (mouse, strain Swiss, females, in drinking water, site: liver, lesion: hepatoma, dosed 52 weeks, study length 52 weeks): 4.62 mg/kg/day
- TD50 (mouse, strain Swiss, females, in drinking water, site: liver, lesion: hyperplastic nodule, dosed 52 weeks, study length 52 weeks): 44.3 mg/kg/day
- TD50 (mouse, strain Swiss, females, in drinking water, site: liver, lesion: several types, types named in the paper, dosed 52 weeks, study length 52 weeks): 14.1 mg/kg/day
- carcinogen call (mouse, strain Swiss, females, in drinking water, site: lung, lesion: adenoma, dosed 52 weeks, study length 52 weeks): negative (inactive)
- TD50 (rat, strain Fischer 344, females, by gavage, site: any site (literature study), lesion: several types, types named in the paper, dosed 103 weeks, study length 104 weeks): 164 mg/kg/day
- TD50 (rat, strain Fischer 344, females, by gavage, site: liver, lesion: hepatocellular adenoma + hepatocellular carcinoma + neoplastic nodule, dosed 103 weeks, study length 104 weeks): 1950 mg/kg/day
- TD50 (rat, strain Fischer 344, females, by gavage, site: thyroid gland, lesion: follicular-cell adenoma + follicular-cell carcinoma, dosed 103 weeks, study length 104 weeks): 252 mg/kg/day
- TD50 (rat, strain Fischer 344, males, by gavage, site: adrenal gland, lesion: cortical adenoma, dosed 103 weeks, study length 104 weeks): 566 mg/kg/day
- TD50 (rat, strain Fischer 344, males, by gavage, site: adrenal medulla, lesion: pheochromocytoma, dosed 103 weeks, study length 104 weeks): 184 mg/kg/day
- TD50 (rat, strain Fischer 344, males, by gavage, site: any site (literature study), lesion: several types, types named in the paper, dosed 103 weeks, study length 104 weeks): 41.8 mg/kg/day
- TD50 (rat, strain Fischer 344, males, by gavage, site: liver, lesion: hepatocellular adenoma + hepatocellular carcinoma + neoplastic nodule, dosed 103 weeks, study length 104 weeks): 665 mg/kg/day
- TD50 (rat, strain Fischer 344, males, by gavage, site: pancreatic islets + thyroid gland, lesion: islet-cell adenoma + follicular-cell adenoma + follicular-cell carcinoma, dosed 103 weeks, study length 104 weeks): 67.7 mg/kg/day
- TD50 (rat, strain Fischer 344, males, by gavage, site: pancreatic islets, lesion: islet-cell adenoma + islet-cell carcinoma, dosed 103 weeks, study length 104 weeks): 90.3 mg/kg/day
- TD50 (rat, strain Fischer 344, males, by gavage, site: pancreatic islets, lesion: islet-cell adenoma, dosed 103 weeks, study length 104 weeks): 80.5 mg/kg/day
- TD50 (rat, strain Fischer 344, males, by gavage, site: subcutaneous tissue, lesion: fibrosarcoma + fibroma, dosed 103 weeks, study length 104 weeks): 195 mg/kg/day
- TD50 (rat, strain Fischer 344, males, by gavage, site: testis, lesion: interstitial-cell tumor, dosed 103 weeks, study length 104 weeks): 39.8 mg/kg/day
- TD50 (rat, strain Fischer 344, males, by gavage, site: thyroid gland, lesion: follicular-cell adenoma + follicular-cell carcinoma, dosed 103 weeks, study length 104 weeks): 113 mg/kg/day
- TD50 (rat, strain Fischer 344, males, by gavage, site: thyroid gland, lesion: follicular-cell adenoma, dosed 103 weeks, study length 104 weeks): 206 mg/kg/day
- TD50 (rat, strain Fischer 344, males, by gavage, site: thyroid gland, lesion: follicular-cell carcinoma, dosed 103 weeks, study length 104 weeks): 236 mg/kg/day

Compound: C/C1=C\C=C(\C(C)C)[C@@H](O)C/C(C)=C/CC/C(C)=C/CC1
- carcinogen call (mouse, strain C3H/HeN, males, in feed, site: liver, lesion: hepatoma, dosed 65 weeks, study length 65 weeks): negative (inactive)

Compound: c1ccc2sc(SSc3nc4ccccc4s3)nc2c1
- TD50 (mouse, strain B6AKF1, females, oral dosing, site: any site (literature study), lesion: several types, types named in the paper, dosed 76 weeks, study length 76 weeks): 1380 mg/kg/day (inactive)
- carcinogen call (mouse, strain B6AKF1, females, oral dosing, site: liver, lesion: hepatoma, dosed 76 weeks, study length 76 weeks): negative (inactive)
- carcinogen call (mouse, strain B6AKF1, females, oral dosing, site: lung, lesion: adenoma, dosed 76 weeks, study length 76 weeks): negative (inactive)
- TD50 (mouse, strain B6AKF1, males, oral dosing, site: any site (literature study), lesion: several types, types named in the paper, dosed 76 weeks, study length 76 weeks): 511 mg/kg/day (inactive)
- carcinogen call (mouse, strain B6AKF1, males, oral dosing, site: liver, lesion: hepatoma, dosed 76 weeks, study length 76 weeks): negative (inactive)
- TD50 (mouse, strain B6AKF1, males, oral dosing, site: lung, lesion: adenoma, dosed 76 weeks, study length 76 weeks): 1130 mg/kg/day (inactive)
- TD50 (mouse, strain B6C3F1, females, oral dosing, site: any site (literature study), lesion: several types, types named in the paper, dosed 76 weeks, study length 76 weeks): 432 mg/kg/day (inactive)
- carcinogen call (mouse, strain B6C3F1, females, oral dosing, site: liver, lesion: hepatoma, dosed 76 weeks, study length 76 weeks): negative (inactive)
- TD50 (mouse, strain B6C3F1, females, oral dosing, site: lung, lesion: adenoma, dosed 76 weeks, study length 76 weeks): 669 mg/kg/day (inactive)
- TD50 (mouse, strain B6C3F1, males, oral dosing, site: any site (literature study), lesion: several types, types named in the paper, dosed 76 weeks, study length 76 weeks): 401 mg/kg/day (inactive)
- TD50 (mouse, strain B6C3F1, males, oral dosing, site: liver, lesion: hepatoma, dosed 76 weeks, study length 76 weeks): 621 mg/kg/day (inactive)
- carcinogen call (mouse, strain B6C3F1, males, oral dosing, site: lung, lesion: several types, types named in the paper, dosed 76 weeks, study length 76 weeks): negative (inactive)
